From patent publication US8357798B2, “Process for preparing N-alkylated hydroxypyrimidinone compounds” (Merck Sharp & Dohme Corp., priority 2004, dated 2013) come the findings set out here.

Each structure is given as a SMILES string. Structures can show the parent of a compound that is named as a salt.

Data set [1] can be described thus: solubility in water. It counts as physicochemical.
Data set [2] addresses HIV integrase (Human immunodeficiency virus type 1 group M subtype B, UniProt P04585). Put plainly: integrase inhibition assay in which strand transfer is catalyzed by recombinant integrase. It is filed as biochemical. The settings on record: assay of Example 193 of WO 02/30930. The source says:
Compound A is an inhibitor of HIV integrase. […] The strand transfer assay is described in Example 193 of WO 02/30930.

The test system of data set [3] is acute HIV infection of T-lymphoid cells. The data set is described as follows: assay for the inhibition of acute HIV infection of T-lymphoid cells. To be noted: in accordance with Vacca et al., PNAS 1994, 91: 4096-4100. It is filed as cell-based.
Data set [4] can be described thus: hygroscopicity (vapor sorption analysis). To be noted: for weight when equilibrated back down to 5% RH: 5% RH after 95% RH; for weight increase when equilibrated at 95% RH: 95% RH at 25° C. It counts as physicochemical. As for the experimental part:
Hygroscopicity data was obtained on a VTI Symmetrical Vapor Sorption Analyzer Model SGA-1. Data was collected at room temperature from 5-95% relative humidity and back, 5% relative humidity change per step. Equilibrium conditions were 0.01 weight percent change in 5 minutes with a maximum equilibration time of 180 minutes.

The mark [5] stands for this setting: listed as Form 1 Crystalline Potassium Salt of Compound A.

`Cc1nnc(C(=O)NC(C)(C)c2nc(C(=O)NCc3ccc(F)cc3)c(O)c(=O)n2C)o1` [potassium salt of Compound A]: the solubility in water entry in data set [1] was “comparatively quite soluble”. Further, the “solubility in water compared to the free base” value in data set [1] (relative to Compound A free base) is listed as “significantly more soluble”.
Turning to `Cc1nnc(C(=O)NC(C)(C)c2nc(C(=O)NCc3ccc(F)cc3)c(O)c(=O)n2C)o1` [Compound A, N-(4-fluorobenzyl)-5-hydroxy-1-methyl-2-(1-methyl-1-{[(5-methyl-1,3,4-oxadiazol-2-yl)carbonyl]amino}ethyl)-6-oxo-1,6-dihydropyrimidine-4-carboxamide], in data set [2], the “inhibition of integrase strand transfer” value is recorded as “potent inhibitor”. The “inhibition of acute HIV infection of T-lymphoid cells” value in data set [3] was “active”. In data set [1], the solubility in water result is given as “limited”.
For `Cc1nnc(C(=O)NC(C)(C)c2nc(C(=O)NCc3ccc(F)cc3)c(O)c(=O)n2C)o1` [listing 1 of 2 here], in data set [4] (setting [5]), the “weight when equilibrated back down to 5% RH” value is reported as “returned back to approximately its dry weight” and the “weight increase when equilibrated at 95% RH” value worked out at 1.8%. The “phase by XRPD after the hygroscopicity experiment” value in data set [4] (XRPD after 5-95% RH cycle) is listed as “had not changed phases”.
For the compound `Cc1nnc(C(=O)NC(C)(C)c2nc(C(=O)NCc3ccc(F)cc3)c(O)c(=O)n2C)o1` [listing 2 of 2 here], in data set [4], the “weight when equilibrated back down to 5% RH” value is “returned to its dry weight” and the “weight increase when equilibrated at 95% RH” value is reported as 1%.
